Holding throughout (test): NCI 60 cell line single dose screen (SRB)
Type in all cases: cell-based

For one assay, the system named is 786-0. As to conditions: Homo sapiens; 786-0 (renal cancer), single dose 10^−5 M, 48 h; read-out: Growth inhibition percentage. As for the experimental part: (§1) Anticancer activity screening of the newly synthesised compounds was measured in vitro utilising 60 different human tumour cell lines provided by US National Cancer Institute according to previously reported standard procedure[27–29] as follows: Cells are inoculated into 96-well microtitre plates in 100 ml. After cell inoculation, the microtitre plates are incubated at 37 °C, 5% CO2, 95% air and 100% relative humidity for 24 h prior to addition of experimental compounds. After 24 h, two plates of each cell line are fixed in situ with TCA, to represent a measurement of the cell population for each cell line at the time of drug addition (Tz). Experimental compounds are solubilised in dimethyl sulphoxide at 400-fold the desired final maximum test concentration and stored frozen prior to use. At the time of compound addition, an aliquot of frozen concentrate is thawed and diluted to twice the desired final maximum test concentration with complete medium containing […] gentamicin. Aliquots of […] of the compounds dilutions are added to the appropriate microtitre wells already containing 100 ml of medium, resulting in the required final compound concentration. Following compound addition, the plates are incubated for an additional 48 h at 37 °C, 5% CO2, 95% air, and 100% relative humidity. For adherent cells, the assay is terminated by the addition of cold trichloroacetic acid (TCA). Cells are fixed in situ by the gentle addition of 50 ml of cold 50% (w/v) TCA (final concentration, 10% TCA) and incubated for 60 min at 4 °C. The supernatant is discarded, and the plates are washed five times with tap water and air-dried. Sulphorhodamine B (SRB) solution (100 ml) at 0.4% (w/v) in 1% acetic acid is added to each well, and plates are incubated for 10 min at room temperature. After staining, unbound dye is removed by washing five times with 1% acetic acid and the plates are air-dried. Bound stain is subsequently solubilised with 10 mM trizma base, and the absorbance is read on an automated plate reader at a wavelength of 515 nm. For suspension cells, the methodology is the same except that the assay is terminated by fixing settled cells at the bottom of the wells by gently adding 50 ml of 80% TCA (final concentration, 16% TCA). Using the absorbance measurements [time zero, (Tz), control growth, (C), and test growth in the presence of compound (Ti)], the percentage growth is calculated for each compound. Percentage growth inhibition is calculated as: [(Ti – Tz)/(C – Tz)] x 100 for concentrations for which Ti >/=Tz. [(Ti – Tz)/Tz] x 100 for concentrations for which Ti < Tz.

The next assay has as its system MDA-MB-231/ATCC. As to conditions: Homo sapiens; MDA-MB-231/ATCC (breast cancer), single dose 10^−5 M, 48 h; read-out: Growth inhibition percentage. How it is done:
as §1

Another assay deals with SK-MEL-28. As to conditions: Homo sapiens; SK-MEL-28 (melanoma), single dose 10^−5 M, 48 h; read-out: Growth inhibition percentage. As for the experimental part: as §1
Another assay concerns MALME-3M. Conditions: Homo sapiens; MALME-3M (melanoma), single dose 10^−5 M, 48 h; read-out: Growth inhibition percentage. As for the experimental part:
as §1

The next assay has as its system NCI-H522. Conditions: Homo sapiens; NCI-H522 (non-small cell lung cancer), single dose 10^−5 M, 48 h; read-out: Growth inhibition percentage. As for the experimental part: as §1
Another assay deals with SF-593. As to conditions: Homo sapiens, SF-593 (CNS cancer), single dose 10^−5 M, 48 h, read-out: Growth inhibition percentage. As for the experimental part:
as §1

The test system of a further assay is U251. As to conditions: Homo sapiens, U-251; U251 (CNS cancer), single dose 10^−5 M, 48 h; read-out: Growth inhibition percentage. How it is done: as §1
A further assay concerns MCF7. As to conditions: Homo sapiens; MCF7 (breast cancer), single dose 10^−5 M, 48 h; read-out: Growth inhibition percentage. How it is done: as §1
A further assay deals with M14. Conditions: Homo sapiens; M14 (melanoma), single dose 10^−5 M, 48 h; read-out: Growth inhibition percentage. How it is done:
as §1

A further assay has as its system NCI-H226. As to conditions: Homo sapiens; NCI-H226 (non-small cell lung cancer), single dose 10^−5 M, 48 h; read-out: Growth inhibition percentage. How it is done:
as §1

A further assay relates to HS 578T. Conditions: Homo sapiens; HS 578T (breast cancer), single dose 10^−5 M, 48 h; read-out: Growth inhibition percentage. As for the experimental part:
as §1

The subject of another assay is RPMI-8226. As to conditions: Homo sapiens; RPMI-8226 (leukemia), single dose 10^−5 M, 48 h; read-out: Growth inhibition percentage. How it is done: as §1
The next assay deals with EKVX. Conditions: Homo sapiens; EKVX (non-small cell lung cancer), single dose 10^−5 M, 48 h; read-out: Growth inhibition percentage. As for the experimental part:
as §1

For a further assay, the system named is SK-OV-3. Conditions: Homo sapiens; SK-OV-3 (ovarian cancer), single dose 10^−5 M, 48 h; read-out: Growth inhibition percentage. As for the experimental part:
as §1

The next assay has as its system SNB-75. Conditions: Homo sapiens; SNB-75 (CNS cancer), single dose 10^−5 M, 48 h; read-out: Growth inhibition percentage. How it is done:
as §1

The next assay has as its system MOLT-4. Conditions: Homo sapiens; MOLT-4 (leukemia), single dose 10^−5 M, 48 h; read-out: Growth inhibition percentage. How it is done:
as §1

The test system of a further assay is MDA-MB-435. Conditions: Homo sapiens; MDA-MB-435 (melanoma), single dose 10^−5 M, 48 h; read-out: Growth inhibition percentage. How it is done: as §1
The test system of another assay is OVCAR-3. As to conditions: Homo sapiens; OVCAR-3 (ovarian cancer), single dose 10^−5 M, 48 h; read-out: Growth inhibition percentage. How it is done:
as §1

In the next assay the test system is TK-10. Conditions: Homo sapiens; TK-10 (renal cancer), single dose 10^−5 M, 48 h; read-out: Growth inhibition percentage. How it is done:
as §1

The subject of another assay is A549/ATCC. As to conditions: Homo sapiens; A549/ATCC (non-small cell lung cancer), single dose 10^−5 M, 48 h; read-out: Growth inhibition percentage. As for the experimental part: as §1
A further assay has as its system OVCAR-8. Conditions: Homo sapiens; OVCAR-8 (ovarian cancer), single dose 10^−5 M, 48 h; read-out: Growth inhibition percentage. As for the experimental part:
as §1

Molecules are shown by their SMILES.

As to `Cc1ccc(Nc2ncnc3c2c(C)nn3-c2ccc(F)cc2)cc1` [Compound 7c, 1–(4-Fluorophenyl)-3-methyl-N-(p-tolyl)-1H-pyrazolo[3,4-d]-pyrimidin-4-amine], the inhibition at 10 µM is 0.56% in the assay on 786-0; -2.67% in the assay on MDA-MB-231/ATCC; -11.1% in the assay on SK-MEL-28; 1.7% in the assay on MALME-3M; 11% with NCI-H522; -1.94% with SF-593. The inhibition at 10 µM in the assay on U251 was 2.65%; in the assay on MCF7, 6.19%; in the assay with M14 it was 0.75%; in the assay with NCI-H226 it was -10.2%; in the assay with HS 578T it was 0.7%; in the assay on RPMI-8226, -4.47%. The inhibition at 10 µM with EKVX is 3.39%; in the assay with SK-OV-3, -16.7%; in the assay with SNB-75, -5.2%; in the assay with MOLT-4, 1.83%; with MDA-MB-435 it was -6.94%; in the assay on OVCAR-3, -6.58%. The inhibition at 10 µM in the assay on TK-10 stood at 9.04%; in the assay on A549/ATCC, 3.08%; in the assay with OVCAR-8, 2.02%.
`Cc1nn(-c2ccc(F)cc2)c2ncnc(Nc3ccc(F)c(Cl)c3)c12` [Compound 7d, N-(3-Chloro-4-fluorophenyl)-1–(4-fluorophenyl)-3-methyl-1H-pyrazolo[3,4-d] pyrimidin-4-amine]: the inhibition at 10 µM with 786-0 is 21.3%; in the assay with MDA-MB-231/ATCC it was 14.2%; in the assay with SK-MEL-28 it was -4.63%; in the assay on MALME-3M it was 1.56%; with NCI-H522 it was 10.4%; with SF-593, 22.6%. The inhibition at 10 µM in the assay with U251 turned out to be 24%; in the assay with MCF7, 15.7%; in the assay with M14, 1.01%; with NCI-H226, 62.9%; in the assay with HS 578T it was 21.5%; in the assay on RPMI-8226 it was 9.77%. Besides, the inhibition at 10 µM was 14.5% in the assay on EKVX; 13.9% in the assay on SK-OV-3; 25% in the assay with SNB-75; 4.27% with MOLT-4; 0.1% in the assay on MDA-MB-435; 9.57% in the assay with OVCAR-3. Further, the results for the inhibition at 10 µM in the assay on TK-10, with A549/ATCC and with OVCAR-8 were -6.68%, 40.5% and 16.6%, respectively.
With `Cc1nn(-c2ccc(F)cc2)c2nc[nH]c(=O)c12` [Compound 3, 1–(4-Fluorophenyl)-3-methyl-1H-pyrazolo[3,4-d]pyrimidin-4(5H)-one], the inhibition at 10 µM is 1.16% in the assay with 786-0; -9.78% in the assay on MDA-MB-231/ATCC; -14.1% in the assay on SK-MEL-28; -8.22% in the assay on MALME-3M; 4.92% in the assay with NCI-H522; -0.99% in the assay with SF-593. The inhibition at 10 µM is -1.7% in the assay with U251; 2.7% with MCF7; -7.65% in the assay on M14; -9.27% in the assay on NCI-H226; 0.13% in the assay on HS 578T; -10.2% with RPMI-8226. Besides, the inhibition at 10 µM with EKVX was 36.2%; in the assay on SK-OV-3, -2.82%; with SNB-75, 0.29%; in the assay with MOLT-4, 3.3%; in the assay on MDA-MB-435 it was -7.05%; with OVCAR-3, -5.82%. The values for the inhibition at 10 µM in the assay on TK-10, in the assay on A549/ATCC and in the assay with OVCAR-8 were -3.17%, -2.93% and -0.16%, respectively.
Consider `Cc1nn(-c2ccc(F)cc2)c2ncnc(Cl)c12` [Compound 6, 4-Chloro-1–(4-fluorophenyl)-3-methyl-1H-pyrazolo[3,4-d]pyrimidine], for which the inhibition at 10 µM was -0.09% in the assay with 786-0; 10.8% with MDA-MB-231/ATCC; -4.92% in the assay with SK-MEL-28; -4.3% in the assay with MALME-3M; 59% in the assay with NCI-H522; -7.81% in the assay with SF-593. Further, the inhibition at 10 µM in the assay on U251 is 5.15%; in the assay with MCF7 it was 11.6%; with M14, 5.89%; with NCI-H226, 15.1%; in the assay on HS 578T, 4.54%; with RPMI-8226, 2.21%. Besides, the inhibition at 10 µM was 9.08% in the assay on EKVX; 13.7% with SK-OV-3; 6.36% in the assay on SNB-75; 13.8% with MOLT-4; -8.83% in the assay on MDA-MB-435; -8.39% in the assay on OVCAR-3. Further, the inhibition at 10 µM is -23% in the assay on TK-10, 11.6% with A549/ATCC and 6.34% with OVCAR-8.
Consider `Cc1nn(-c2ccc(F)cc2)c2ncnc(N3CCOCC3)c12` [Compound 8a, 1–(4-Fluorophenyl)-3-methyl-4-morpholino-1H-pyrazolo[3,4-d]pyrimidine], for which the inhibition at 10 µM with 786-0 is 10.6%; in the assay on MDA-MB-231/ATCC it was -10.4%; with SK-MEL-28 it was -12.6%; in the assay with MALME-3M it was -10.5%; in the assay with NCI-H522 it was 8.03%; with SF-593 it was -8.46%. The inhibition at 10 µM in the assay with U251 was -1.7%; with MCF7 it was 9.07%; in the assay with M14, -4.47%; in the assay with NCI-H226 it was -8.48%; in the assay with HS 578T it was -4.78%; in the assay with RPMI-8226, 2%. Also, the inhibition at 10 µM with EKVX is 19.5%; in the assay with SK-OV-3, -7.07%; in the assay on SNB-75, 0.92%; with MOLT-4, 5.79%; in the assay with MDA-MB-435, -2.24%; in the assay on OVCAR-3, -5.65%. Further, the inhibition at 10 µM in the assay on TK-10 was 9.75%; in the assay with A549/ATCC, -0.09%; in the assay with OVCAR-8, -5.87%.

The term inhibition denotes the relative decrease from the control value, in per cent.

Values taken from paper PMC6352943, “Novel pyrazolo[3,4-d]pyrimidines: design, synthesis, anticancer activity, dual EGFR/ErbB2 receptor tyrosine kinases inhibitory activity, effects on cell cycle profile and caspase-3-mediated apoptosis” (Journal of Enzyme Inhibition and Medicinal Chemistry, 2019).
